Assay results as given in ChEMBL document CHEMBL4842352, “Novel diarylamides and diarylureas with N-substitution dependent activity against medulloblastoma” (Eur J Med Chem, 2021).
pIC50: −log10 of the molar value. Calls of active or inactive are those of the source. No cut-off for these calls is given here.

Key:
Daoy [1] = assay: Cytotoxicity against human DAOY cells assessed as reduction in cell viability incubated for 72 hrs by MTT assay; assay type: functional, cell-based
ONS-76 [2] = assay: Cytotoxicity against human ONS-76 cells assessed as reduction in cell viability incubated for 72 hrs by MTT assay; assay type: functional, cell-based; conditions: ONS-76, 72 h
Daoy [3] = assay: Potency index, ratio of 1-(naphthalen-1-yl)-3-(3,4,5-trimethoxyphenyl)urea IC50 to test compound IC50 for cytotoxicity against human DAOY cells assessed as reduction in cell viability incubated for 72 hrs by MTT assay; assay type: functional
ONS-76 [4] = assay: Potency index, ratio of 1-(naphthalen-1-yl)-3-(3,4,5-trimethoxyphenyl)urea IC50 to test compound IC50 for cytotoxicity against human ONS-76 cells assessed as reduction in cell viability incubated for 72 hrs by MTT assay; assay type: functional
[5] = biological target: Cyclin-dependent kinase 2 (Homo sapiens) (UniProt P24941); assay: Inhibition of CDK2 (unknown origin) at 100 uM
[6] = biological target: Insulin-like growth factor 1 receptor (Homo sapiens) (UniProt P08069); assay: Inhibition of IGF-1R (unknown origin) at 100 uM
Sequence of Insulin-like growth factor 1 receptor (Homo sapiens) (P08069 31-736 limits assumed): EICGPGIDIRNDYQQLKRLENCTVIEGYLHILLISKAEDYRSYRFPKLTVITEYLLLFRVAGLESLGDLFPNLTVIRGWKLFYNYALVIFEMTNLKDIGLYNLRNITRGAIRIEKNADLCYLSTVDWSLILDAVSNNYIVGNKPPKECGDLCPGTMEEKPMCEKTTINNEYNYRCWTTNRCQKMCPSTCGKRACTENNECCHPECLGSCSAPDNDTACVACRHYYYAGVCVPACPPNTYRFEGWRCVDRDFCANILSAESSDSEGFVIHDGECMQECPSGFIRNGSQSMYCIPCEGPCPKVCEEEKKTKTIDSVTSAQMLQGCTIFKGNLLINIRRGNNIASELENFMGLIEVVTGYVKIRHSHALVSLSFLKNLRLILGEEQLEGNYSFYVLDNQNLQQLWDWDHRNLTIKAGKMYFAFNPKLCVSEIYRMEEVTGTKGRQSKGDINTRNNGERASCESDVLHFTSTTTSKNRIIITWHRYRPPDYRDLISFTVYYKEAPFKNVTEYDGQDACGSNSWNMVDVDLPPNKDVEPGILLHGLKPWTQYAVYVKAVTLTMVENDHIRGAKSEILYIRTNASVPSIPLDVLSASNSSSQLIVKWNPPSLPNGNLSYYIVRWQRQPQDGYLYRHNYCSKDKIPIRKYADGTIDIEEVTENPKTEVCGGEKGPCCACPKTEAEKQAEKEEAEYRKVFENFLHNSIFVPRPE
Sequence of Insulin-like growth factor 1 receptor (Homo sapiens) (P08069 741-1367 limits assumed): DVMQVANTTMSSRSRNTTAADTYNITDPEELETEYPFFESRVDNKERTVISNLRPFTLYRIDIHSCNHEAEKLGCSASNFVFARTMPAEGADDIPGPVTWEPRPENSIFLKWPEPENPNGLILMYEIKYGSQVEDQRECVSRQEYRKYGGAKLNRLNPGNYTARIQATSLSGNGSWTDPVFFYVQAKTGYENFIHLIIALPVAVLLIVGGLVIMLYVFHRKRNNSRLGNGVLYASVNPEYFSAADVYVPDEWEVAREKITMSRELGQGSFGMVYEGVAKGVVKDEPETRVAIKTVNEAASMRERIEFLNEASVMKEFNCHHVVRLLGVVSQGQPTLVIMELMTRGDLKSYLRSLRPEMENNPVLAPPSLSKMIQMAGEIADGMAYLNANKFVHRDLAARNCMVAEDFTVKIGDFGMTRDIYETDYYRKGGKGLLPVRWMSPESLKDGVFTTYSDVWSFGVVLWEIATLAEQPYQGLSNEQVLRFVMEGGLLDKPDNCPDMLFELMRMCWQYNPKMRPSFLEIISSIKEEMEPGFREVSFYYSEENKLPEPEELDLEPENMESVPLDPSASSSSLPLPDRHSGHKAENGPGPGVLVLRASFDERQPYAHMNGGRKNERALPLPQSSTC

[7] = biological target: Vascular endothelial growth factor receptor 2 (Homo sapiens) (UniProt P35968); assay: Inhibition of VEGFR2 (unknown origin) at 100 uM
Sequence of Vascular endothelial growth factor receptor 2 (Homo sapiens) (P35968 whole entry): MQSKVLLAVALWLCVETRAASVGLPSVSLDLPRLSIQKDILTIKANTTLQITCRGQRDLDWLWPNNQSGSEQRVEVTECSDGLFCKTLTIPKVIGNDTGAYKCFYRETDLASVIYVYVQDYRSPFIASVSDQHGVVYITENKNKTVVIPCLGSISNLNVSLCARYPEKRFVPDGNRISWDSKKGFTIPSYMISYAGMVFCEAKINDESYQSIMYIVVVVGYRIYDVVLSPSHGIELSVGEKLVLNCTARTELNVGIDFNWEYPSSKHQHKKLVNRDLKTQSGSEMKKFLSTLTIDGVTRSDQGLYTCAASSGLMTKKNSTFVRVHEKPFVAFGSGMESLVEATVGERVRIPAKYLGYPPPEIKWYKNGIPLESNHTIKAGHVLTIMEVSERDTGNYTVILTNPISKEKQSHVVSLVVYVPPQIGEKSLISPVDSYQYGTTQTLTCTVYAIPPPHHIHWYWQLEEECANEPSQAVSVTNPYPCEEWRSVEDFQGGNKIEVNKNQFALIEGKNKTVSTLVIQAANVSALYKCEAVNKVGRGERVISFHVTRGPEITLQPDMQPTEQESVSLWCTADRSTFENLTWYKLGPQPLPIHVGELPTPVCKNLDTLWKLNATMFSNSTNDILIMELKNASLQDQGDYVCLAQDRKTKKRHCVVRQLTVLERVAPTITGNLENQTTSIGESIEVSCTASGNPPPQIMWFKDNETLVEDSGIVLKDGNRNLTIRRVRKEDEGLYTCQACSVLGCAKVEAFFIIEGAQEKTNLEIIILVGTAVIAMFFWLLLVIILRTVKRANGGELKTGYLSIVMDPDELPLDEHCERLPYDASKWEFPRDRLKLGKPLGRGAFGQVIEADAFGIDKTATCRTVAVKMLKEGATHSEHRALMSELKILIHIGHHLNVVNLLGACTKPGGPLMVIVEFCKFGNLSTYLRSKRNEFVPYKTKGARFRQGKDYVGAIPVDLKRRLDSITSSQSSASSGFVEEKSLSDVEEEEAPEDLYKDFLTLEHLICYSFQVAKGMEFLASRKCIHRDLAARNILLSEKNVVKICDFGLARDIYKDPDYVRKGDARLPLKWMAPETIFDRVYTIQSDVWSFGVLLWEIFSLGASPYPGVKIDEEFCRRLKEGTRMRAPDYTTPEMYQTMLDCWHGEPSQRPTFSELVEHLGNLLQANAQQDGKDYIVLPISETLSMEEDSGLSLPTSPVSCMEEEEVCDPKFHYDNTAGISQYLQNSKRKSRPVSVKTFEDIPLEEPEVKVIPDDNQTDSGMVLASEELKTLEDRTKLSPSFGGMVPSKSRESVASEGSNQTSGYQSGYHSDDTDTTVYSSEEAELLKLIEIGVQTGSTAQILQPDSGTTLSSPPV

[8] = biological target: T1, Aurora kinase A (Homo sapiens) (UniProt O14965); assay: Inhibition of Aurora A (unknown origin) at 100 uM relative to control
T1 sequence (whole entry): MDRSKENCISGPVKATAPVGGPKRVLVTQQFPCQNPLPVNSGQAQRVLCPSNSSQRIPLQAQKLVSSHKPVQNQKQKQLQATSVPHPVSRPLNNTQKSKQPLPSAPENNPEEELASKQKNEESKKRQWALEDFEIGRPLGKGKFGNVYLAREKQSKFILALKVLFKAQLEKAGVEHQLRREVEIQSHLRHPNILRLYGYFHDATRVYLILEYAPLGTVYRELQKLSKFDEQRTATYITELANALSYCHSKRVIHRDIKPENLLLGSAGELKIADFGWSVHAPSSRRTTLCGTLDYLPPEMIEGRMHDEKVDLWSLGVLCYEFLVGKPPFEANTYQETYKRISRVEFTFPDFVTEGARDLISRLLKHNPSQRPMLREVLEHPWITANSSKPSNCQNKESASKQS

Row | Structure (SMILES) | pIC50 (Daoy [1]) | pIC50 (ONS-76 [2]) | further results
1 | COc1cc(NC(=O)Nc2ccc([N+](=O)[O-])cc2)cc(OC)c1OC | 4.15 | 4.46 | –
2 | COc1cc(NC(=O)Nc2cccc([N+](=O)[O-])c2)cc(OC)c1OC | 4.08 | 4.10 | –
3 | COc1ccc(NC(=O)Nc2cc(OC)c(OC)c(OC)c2)cc1 | 4.83 | 4.89 | –
4 | COc1ccc(N(C)C(=O)N(C)c2cc(OC)c(OC)c(OC)c2)cc1 | ≤ 3.90 | ≤ 3.90 | –
5 | COc1cc(NC(=O)Nc2cccc3ccccc23)cc(OC)c1OC | 5.23 | 5.61 | –
6 | COc1cc(NC(=O)c2cccc3ccccc23)cc(OC)c1OC | 4.31 | 4.57 | –
7 | COc1ccc(C(=O)Nc2cc(OC)c(OC)c(OC)c2)cc1 | ≤ 3.90 | ≤ 3.90 | –
8 | COc1cc(N(C)C(=O)c2cccc(F)c2)cc(OC)c1OC | ≤ 3.90 | ≤ 3.90 | –
9 | COc1cc(NC(=O)c2ccc([N+](=O)[O-])cc2)cc(OC)c1OC | 4.28 | ≤ 3.90 | –
10 | COc1cc(NC(=O)c2cccc(F)c2)cc(OC)c1OC | ≤ 3.90 | ≤ 3.90 | –
11 | COc1cc(N(C)C(=O)N(C)c2ccc(F)cc2)cc(OC)c1OC | ≤ 3.90 | ≤ 3.90 | –
12 | COc1cc(N(C)C(=O)c2cccc3ccccc23)cc(OC)c1OC | ≤ 3.90 | 4.18 | –
13 | COc1cc(NC(=O)Nc2ccc3c(ccn3C)c2)cc(OC)c1OC | 6.80 | ≤ 3.90 | Ratio IC50 (Daoy [3]): 36.5
14 | COc1cc(N(C)C(=O)c2cccc([N+](=O)[O-])c2)cc(OC)c1OC | ≤ 3.90 | ≤ 3.90 | –
15 | COc1cc(NC(=O)c2ccccc2)cc(OC)c1OC | ≤ 3.90 | ≤ 3.90 | –
16 | COc1ccc(C(=O)N(C)c2cc(OC)c(OC)c(OC)c2)cc1 | ≤ 3.90 | ≤ 3.90 | –
17 | COc1cc(N(C)C(=O)c2ccc(F)cc2)cc(OC)c1OC | ≤ 3.90 | ≤ 3.90 | –

Row | Structure (SMILES) | pIC50 (Daoy [1]) | pIC50 (ONS-76 [2]) | further results
18 | COc1cc(N(C)C(=O)c2ccccc2)cc(OC)c1OC | ≤ 3.90 | ≤ 3.90 | –
19 | COc1cc(NC(=O)c2ccc(F)cc2)cc(OC)c1OC | ≤ 3.90 | ≤ 3.90 | –
20 | COc1cc(NC(=O)Nc2cccc3c2CCC3)cc(OC)c1OC | 6.33 | ≤ 3.90 | Ratio IC50 (Daoy [3]): 12.4
21 | COc1cc(N(C)C(=O)N(C)c2cccc(F)c2)cc(OC)c1OC | ≤ 3.90 | ≤ 3.90 | –
22 | COc1cc(NC(=O)Nc2cccc3ncccc23)cc(OC)c1OC | 5.40 | ≤ 3.90 | Ratio IC50 (Daoy [3]): 1.5
23 | COc1cc(NC(=O)Nc2ccc(F)cc2)cc(OC)c1OC | 3.98 | 4.20 | –
24 | COc1cc(N(C)C(=O)N(C)c2ccc([N+](=O)[O-])cc2)cc(OC)c1OC | ≤ 3.90 | ≤ 3.90 | –
25 | COc1cc(N(C)C(=O)N(C)c2cccc([N+](=O)[O-])c2)cc(OC)c1OC | ≤ 3.90 | ≤ 3.90 | –
26 | COc1cc(NC(=O)Nc2cccc3cc4ccccc4cc23)cc(OC)c1OC | 5.90 | 5.00 | Ratio IC50 (Daoy [3]): 4.7; Ratio IC50 (ONS-76 [4]): 0.25
27 | COc1cc(NC(=O)Nc2cccc3cc(O)ccc23)cc(OC)c1OC | ≤ 3.90 | ≤ 3.90 | –
28 | COc1cc(N(C)C(=O)N(C)c2cccc3ccccc23)cc(OC)c1OC | ≤ 3.90 | ≤ 3.90 | –
29 | COc1cc(NC(=O)c2cccc([N+](=O)[O-])c2)cc(OC)c1OC | ≤ 3.90 | ≤ 3.90 | –
30 | COc1cc(NC(=O)Nc2cccc(F)c2)cc(OC)c1OC | 3.95 | 4.18 | –
31 | COc1cc(NC(=O)Nc2c3ccccc3cc3ccccc23)cc(OC)c1OC | ≤ 3.90 | 5.00 | Ratio IC50 (ONS-76 [4]): 0.25
32 | COc1cc(NC(=O)Nc2cccc3cc[nH]c23)cc(OC)c1OC | ≤ 3.90 | ≤ 3.90 | –
33 | COc1cc(N(C)C(=O)c2ccc([N+](=O)[O-])cc2)cc(OC)c1OC | ≤ 3.90 | ≤ 3.90 | –
34 | COc1cc(NC(=O)Nc2ccc(O)c3ccccc23)cc(OC)c1OC | 7.00 | 5.60 | Ratio IC50 (Daoy [3]): 58.4; Ratio IC50 (ONS-76 [4]): 0.98; inhibition [5]: inactive; inhibition [6]: inactive; inhibition [7]: inactive; inhibition [8]: 30%
